The target of the test is T1, human liver FBPase (Homo sapiens, UniProt P09467).
T1 construct: made in house; host or cells: E. coli
T1 sequence (P09467 2-338 limits assumed): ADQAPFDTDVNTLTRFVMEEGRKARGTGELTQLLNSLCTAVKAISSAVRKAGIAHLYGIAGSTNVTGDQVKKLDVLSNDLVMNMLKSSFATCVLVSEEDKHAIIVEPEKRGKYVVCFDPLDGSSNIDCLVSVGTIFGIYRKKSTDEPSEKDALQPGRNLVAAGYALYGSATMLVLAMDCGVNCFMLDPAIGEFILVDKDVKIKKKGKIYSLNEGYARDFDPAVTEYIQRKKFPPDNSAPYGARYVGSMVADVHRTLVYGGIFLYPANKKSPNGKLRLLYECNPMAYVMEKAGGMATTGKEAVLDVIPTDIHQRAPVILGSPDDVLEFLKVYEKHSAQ
Nature of the test: FBPase assay (malachite green phosphate release). The note with it: recombinant human liver FBPase, 50 μM fructose-1,6-bisphosphate. It is filed as biochemical. As for the experimental part: The following tests were carried out for evaluating the inhibitory activity of the compounds of the present invention against human liver FBPase (Swissprot Data base reference PO9467, entry F16P_HUMAN).
Human liver FBPase cDNA (NM_000507) was purchased from Origene Technologies, Inc, subcloned in a vector for expression in E. Coli., and sequenced. Recombinant human liver FBPase (hlFBPase) was purified according to the following protocol that uses heat denaturation similarly to that described by El-Maghrabi et al. [El-Maghrabi, M. R. et al. “Isolation of a human liver fructose-1,6-bisphosphatase cDNA and expression of the protein in Escherichia coli.” J Biol Chem 268:9466-9472, 1993.]. Briefly, E. coli cells, transiently expressing very high levels of soluble and active human liver FBPase, were suspended in 20 mM Tris-HCl pH 7.5, 1 mM EDTA, 1 mM DTT and were lysed by French press. The soluble extract was heat denatured at 65° C. for 5 min, and insoluble, denatured proteins were removed by centrifugation. The extract was then applied to a BioRad Macro-Prep High Q column equilibrated with 20 mM Tris-HCl pH 7.5, 1 mM EDTA, 1 mM DTT and the flow-through (containing FBPase activity) was collected and applied to a BioRad Macro-Prep HS column equilibrated with 20 mM HEPES pH 7.2, 1 mM DTT. A gradient of increasing NaCl concentration was then applied to the HS column and fractions were collected. Fractions containing active FBPase were pooled and further purified by size exclusion chromatography on a Sephacryl S200 column equilibrated in 20 mM Tris-HCl pH 7.5, 150 mM NaCl, 1 mM EDTA, 1 mM DTT. Purity of the enzyme preparation was >90% as assessed by Mass spectrometry.
Recombinant human liver FBPase (hlFBPase) activity was assayed through measuring the inorganic phosphate release that results from the hydrolysis of Fructose-1,6-bisphosphate by the enzyme. As described by Baykov A. A. et al. in [Baykov A. A et al., “Malachite Green procedure for orthophosphate determination and its use in alkaline phosphatase-based enzyme immunoassays”. Anal. Biochem., 171:266-270, 1988], inorganic phosphate can be readily quantified by spectrophotometry at 620 nm after complexation with ammonium molybdate/malachite green reagent. Enzymatic reaction was carried out with modifications of the procedure described by Wright S. W. et al. [Wright S. W. et al., “Anilinoquinazoline inhibitors of Fructose-1,6-bisphosphatase bind to a novel allosteric site: synthesis, in vitro characterization, and X-ray crystallography”. J. Med. Chem. 45:3865-3877, 2002]. Specifically, the reaction was carried out in 96 well plates in a final volume of 100 μl in the presence or in the absence of allosteric inhibitors. Reaction was started adding 25 ng of hlFBPase to the reaction mixture containing 50 mM HEPES-KOH buffer pH 7.2, 2 mM MgCl2, 2 mM EDTA, 1 mM DTT, 50 μM fructose-1,6-bisphosphate and 1% DMSO. After 50 minutes incubation at room temperature, the phosphate released was allowed to form a colored complex for 10 min by adding 150 μl of ammonium molybdate/malachite green reagent containing 0.03% malachite green, 0.2% ammonium molybdate, 0.05% Triton X-100 and 0.7 M H2SO4 in water that was stirred for 30 min at room temperature and filtered through 0.2 μm filter. Under these conditions, the assay was linear with time and able to detect FBPase inhibition after spectrophotometric read-out at 620 nm.

pIC50: −log10 of the molar value.

For the compound `CNC(=O)Nc1cc(OC)cc(NC(=O)NS(=O)(=O)c2cccc(C)c2)n1` [Compound 27, N-({4-Methoxy-6-[(methylcarbamoyl)amino]pyridin-2-yl}carbamoyl)-3-methylbenzenesulfonamide], the pIC50 (usually the IC50 on a negative log10 scale, so that one unit is a factor of ten) was 6.45.

For `Nc1cc(Br)cc(NC(=O)NS(=O)(=O)c2cccc(Cl)c2)n1` [Compound 28, N-[(6-Amino-4-bromopyridin-2-yl)carbamoyl]-3-chlorobenzenesulfonamide], the pIC50 was 6.40.

As to `CNC(=O)Nc1cc(OC)cc(NC(=O)NS(=O)(=O)c2csc(COC)c2)n1` [Compound 29, 5-(Methoxymethyl)-N-({4-methoxy-6-[(methylcarbamoyl)amino]pyridin-2-yl}carbamoyl)thiophene-3-sulfonamide], the pIC50 was 6.38.

As to `COCCc1sc(S(=O)(=O)NC(=O)Nc2cc(OC)cc(N)n2)cc1C` [Compound 30, N-[(6-Amino-4-methoxypyridin-2-yl)carbamoyl]-5-(2-methoxyethyl)-4-methylthiophene-2-sulfonamide], the pIC50 was 6.37.

Regarding `COCCc1sc(S(=O)(=O)NC(=O)Nc2cc(Br)cc(N3CCOCC3)n2)cc1C` [Compound 31, N-[(4-Bromo-6-morpholin-4-ylpyridin-2-yl)carbamoyl]-5-(2-methoxyethyl)-4-methylthiophene-2-sulfonamide], the pIC50 was 6.37.

For `COCCc1sc(S(=O)(=O)NC(=O)Nc2cc(SC)cc(N)n2)cc1C` [Compound 32, N-{[6-Amino-4-(methylthio)pyridin-2-yl]carbamoyl}-5-(2-methoxyethyl)-4-methylthiophene-2-sulfonamide], the pIC50 was 6.36.

On to `COCCc1sc(S(=O)(=O)NC(=O)Nc2cc(C(F)(F)F)ccn2)cc1C` [Compound 33, 5-(2-Methoxyethyl)-4-methyl-N-{[4-(trifluoromethyl)pyridin-2-yl]carbamoyl}thiophene-2-sulfonamide], for which the pIC50 was 5.78.

Turning to `Nc1cc(Br)cc(NC(=O)NS(=O)(=O)c2ccc3c(c2)CCO3)n1` [Compound 34, N-[(6-Amino-4-bromopyridin-2-yl)carbamoyl]-2,3-dihydro-1-benzofuran-5-sulfonamide], the pIC50 is 6.32.

As to `CCOc1cc(NC(=O)NC)nc(NC(=O)NS(=O)(=O)c2cc(C)c(CCOC)s2)c1` [Compound 35, N-({4-Ethoxy-6-[(methylcarbamoyl)amino]pyridin-2-yl}carbamoyl)-5-(2-methoxyethyl)-4-methylthiophene-2-sulfonamide], the pIC50 is 6.31.

`Cc1cccc(S(=O)(=O)NC(=O)Nc2cc(Br)cc(N)n2)c1` [Compound 36, N-[(6-Amino-4-bromopyridin-2-yl)carbamoyl]-3-methylbenzenesulfonamide]: the pIC50 was 6.25.

Turning to `Nc1cc(Br)cc(NC(=O)NS(=O)(=O)c2ccc3c(c2)OCCO3)n1` [Compound 37, N-[(6-Amino-4-bromopyridin-2-yl)carbamoyl]-2,3-dihydro-1,4-benzodioxine-6-sulfonamide], the pIC50 is 6.24.

Regarding `CNC(=O)Nc1cc(OC)cc(NC(=O)NS(=O)(=O)c2cc(C)c(OCCOC)s2)n1` [Compound 38, 5-(2-Methoxyethoxy)-N-({4-methoxy-6-[(methylcarbamoyl)amino]pyridin-2-yl}carbamoyl)-4-methylthiophene-2-sulfonamide], the pIC50 was 6.24.

Consider `Cc1cccc(S(=O)(=O)NC(=O)Nc2cc(Br)cc(NCC(F)F)n2)c1` [Compound 39, N-({4-Bromo-6-[(2,2-difluoroethyl)amino]pyridin-2-yl}carbamoyl)-3-methylbenzenesulfonamide], for which the pIC50 was 6.21.

Regarding `CCOc1cc(NC(N)=O)nc(NC(=O)NS(=O)(=O)c2cc(C)c(CCOC)s2)c1` [Compound 40, N-{[6-(Carbamoylamino)-4-ethoxypyridin-2-yl]carbamoyl}-5-(2-methoxyethyl)-4-methylthiophene-2-sulfonamide], the pIC50 is 6.20.

For `O=C(Nc1cc(Br)cc(NCC(F)F)n1)NS(=O)(=O)c1cccc(Cl)c1` [Compound 41, N-({4-Bromo-6-[(2,2-difluoroethyl)amino]pyridin-2-yl}carbamoyl)-3-chlorobenzenesulfonamide], the pIC50 was 6.16.

As to `COCCc1sc(S(=O)(=O)NC(=O)Nc2cc(C(F)(F)F)cc(-c3ccc(C(F)(F)F)cc3)n2)cc1C` [Compound 42, 5-(2-Methoxyethyl)-4-methyl-N-({4-(trifluoromethyl)-6-[4-(trifluoromethyl)phenyl]pyridin-2-yl}carbamoyl)thiophene-2-sulfonamide], the pIC50 was 6.12.

`CSc1cc(N)nc(NC(=O)NS(=O)(=O)c2csc(C)c2)c1` [Compound 43, N-{[6-Amino-4-(methylthio)pyridin-2-yl]carbamoyl}-5-methylthiophene-3-sulfonamide]: the pIC50 is 6.08.

Turning to `COCCc1sc(S(=O)(=O)NC(=O)Nc2cc(SC)cc(NCCF)n2)cc1C` [Compound 45, N-({6-[(2-Fluoroethyl)amino]-4-(methylthio)pyridin-2-yl}carbamoyl)-5-(2-methoxyethyl)-4-methylthiophene-2-sulfonamide], the pIC50 was 6.06.

Take `COCCc1sc(S(=O)(=O)NC(=O)Nc2cc(C)cc(C3CCc4ccccc4C3)n2)cc1C` (centres unmarked) [Compound 46, 5-(2-Methoxyethyl)-4-methyl-N-{[4-methyl-6-(1,2,3,4-tetrahydronaphthalen-2-yl)pyridin-2-yl]carbamoyl}thiophene-2-sulfonamide]: the pIC50 is 6.03.

For the compound `O=C(Nc1cc(Br)cc(NCC(F)F)n1)NS(=O)(=O)c1ccc2c(c1)CCO2` [Compound 47, N-({4-Bromo-6-[(2,2-difluoroethyl)amino]pyridin-2-yl}carbamoyl)-2,3-dihydro-1-benzofuran-5-sulfonamide], the pIC50 is 5.99.

As for `COCCc1sc(S(=O)(=O)NC(=O)Nc2cc(SC)cc(NCCO)n2)cc1C` [Compound 48, N-({6-[(2-Hydroxyethyl)amino]-4-(methylthio)pyridin-2-yl}carbamoyl)-5-(2-methoxyethyl)-4-methylthiophene-2-sulfonamide], the negative-log IC50 (pIC50) was 5.99.

Consider `CNC(=O)Nc1cc(OC)cc(NC(=O)NS(=O)(=O)c2cn(C)c3c(OCCOC)cccc23)n1` [Compound 49], for which the pIC50 was 5.97.

With `CNC(=O)Nc1cc(S(C)(=O)=O)cc(NC(=O)NS(=O)(=O)c2cc(C)c(CCOC)s2)n1` [Compound 50, 5-(2-Methoxyethyl)-4-methyl-N-({6-[(methylcarbamoyl)amino]-4-(methylsulfonyl)pyridin-2-yl}carbamoyl)thiophene-2-sulfonamide], the pIC50 was 5.96.

As for `COCCOc1ccc(S(=O)(=O)NC(=O)Nc2cc(Br)cc(NCC(F)F)n2)cc1C` [Compound 51, N-({4-Bromo-6-[(2,2-difluoroethyl)amino]pyridin-2-yl}carbamoyl)-4-(2-methoxyethoxy)-3-methylbenzenesulfonamide], the pIC50 is 5.95.

As for `COc1cccc2c(S(=O)(=O)NC(=O)Nc3cc(SC)cc(N)n3)cn(C)c12` [Compound 53, N-{[6-Amino-4-(methylthio)pyridin-2-yl]carbamoyl}-7-methoxy-1-methyl-1H-indole-3-sulfonamide], the pIC50 was 5.83.

With `COCCc1sc(S(=O)(=O)NC(=O)Nc2cc(Br)cc(NC(=O)N(C)C)n2)cc1C` [Compound 54, N-({4-Bromo-6-[(dimethylcarbamoyl)amino]pyridin-2-yl}carbamoyl)-5-(2-methoxyethyl)-4-methylthiophene-2-sulfonamide], the pIC50 was 5.82.

Source of the values: patent US8163778B2 (Hoffmann-LA Roche Inc., priority 2007, dated 2012).
